# Assay results: patent US9018231B2, “Sulfone compounds as 5-HT6 receptor ligands” (Suven Life Sciences Limited, priority 2010, dated 2015)
# Structures can show the parent of a compound that is named as a salt. Where two headings read alike, the source gives them in different places.
# What was measured:
# [1] = biological target: T1, recombinant human 5-HT6 receptor (Homo sapiens, UniProt P50406); assay: Determination of Kb values for 5-HT6 receptor (CHO pCRE-Luc reporter assay); type: cell-based; conditions: antagonism of 10 uM serotonin, luciferase reporter, CHO cells
# T1 construct: expressed in transfected cells
# T1 sequence (P50406 whole entry): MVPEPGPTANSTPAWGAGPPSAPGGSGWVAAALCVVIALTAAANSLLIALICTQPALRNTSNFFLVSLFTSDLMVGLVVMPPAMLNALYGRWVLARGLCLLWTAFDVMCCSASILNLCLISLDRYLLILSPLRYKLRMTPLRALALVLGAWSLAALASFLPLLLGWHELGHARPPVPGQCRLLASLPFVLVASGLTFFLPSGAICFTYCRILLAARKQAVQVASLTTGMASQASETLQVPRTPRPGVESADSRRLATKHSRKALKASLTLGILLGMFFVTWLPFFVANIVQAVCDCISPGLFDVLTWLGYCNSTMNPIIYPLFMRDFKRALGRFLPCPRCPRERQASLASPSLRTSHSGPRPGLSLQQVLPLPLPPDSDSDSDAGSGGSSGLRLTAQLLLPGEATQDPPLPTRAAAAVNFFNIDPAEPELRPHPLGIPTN
# Experimental: A stable CHO cell line expressing recombinant human 5-HT6 receptor and pCRE-Luc reporter system was used for cell-based assay. The assay offers a non-radioactive based approach to determine binding of a compound to GPCRs. In this specific assay, the level of intracellular cyclic AMP which is modulated by activation or inhibition of the receptor is measured. The recombinant cells harbor luciferase reporter gene under the control of cAMP response element.
# The above cells were grown in 96 well clear bottom white plates in Hams F12 medium containing 10% fetal bovine serum (FBS). Prior to the addition of compounds and/or agonist, cells were serum starved overnight. Increasing concentrations of test compounds were added along with 10 uM serotonin in Hams F12 medium containing 1% dialyzed FBS to the cells. The incubation was continued at 37° C. in CO2 incubator for 4 hours. Medium was removed and cells were washed with phosphate buffered saline. The cells were lysed and luciferase activity was measured in a Luminometer. Luminescence units were plotted against the compound concentrations using Graphpad software. EC50 values of the compounds were defined as the concentration required reducing the luciferase activity by 50%. The Kb values were calculated by feeding the concentration of the agonist used in the assay and its EC50 value in the same software.
# [2] = Rodent pharmacokinetic study; type: in vivo; conditions: plasma, Wistar/Male rat, 10 mg/kg; for AUC(0-t) / half-life / Cmax / Tmax: vehicle water (Ex. 8: 50% PEG 400); for Cmax: read-out: Cmax; for Tmax: read-out: Tmax; for bioavailability: Oral vs Intravenous, read-out: Bioavailability
# Experimental: Male wistar rats (230-280 grams) obtained from NIN (National Institute of Nutrition, Hyderabad, India) were used as an experimental animal. Three to five animals were housed in each cage. Animals were kept fasted over night and maintained on a 12 hours light/dark cycle. Three rats were dosed NCE (10 mg/Kg) orally and intravenously on day 0 and day 2.
# At each time point blood was collected by jugular vein. Plasma was stored frozen at −20° C. until analysis. The concentrations of the NCE compound in plasma were determined using LC-MS/MS method. Schedule time points: Pre dose 0.25, 0.5, 1, 1.5, 2, 3, 4, 6, 8, 10, 12 and 24 hours after dosing (n=3). The NCE compounds were quantified in plasma by validated LC-MS/MS method using solid phase extraction technique. NCE compounds were quantified in the calibration range of 2-2000 ng/mL in plasma. Study samples were analyzed using calibration samples in the batch and quality control samples spread across the batch.
# Pharmacokinetic parameters Cmax, Tmax, AUCt, T1/2 and Bioavailability were calculated by non-compartmental model using software WinNonlin version 5.1.
# [3] = Object recognition task model; type: in vivo; conditions: rat, p.o.
# Experimental: The cognition-enhancing properties of compounds of this invention were estimated using a model of animal cognition: the object recognition task model.
# Male Wister rats (230-280 grams) obtained from N.I.N. (National Institute of Nutrition, Hyderabad, India) was used as experimental animals. Four animals were housed in each cage. Animals were kept on 20% food deprivation before one day and given water ad libitum throughout the experiment and maintained on a 12 hours light/dark cycle. Also the rats were habituated to individual arenas for 1 hour in the absence of any objects.
# One group of 12 rats received vehicle (1 mL/Kg) orally and another set of animals received compound of the formula (I) either orally or i.p., before one hour of the familiar (T1) and choice trial (T2).
# The experiment was carried out in a 50×50×50 cm open field made up of acrylic. In the familiarization phase, (T1), the rats were placed individually in the open field for 3 minutes, in which two identical objects (plastic bottles, 12.5 cm height×5.5 cm diameter) covered in yellow masking tape alone (a1 and a2) were positioned in two adjacent corners, 10 cm. from the walls. After 24 hours of the (T1) trial for long-term memory test, the same rats were placed in the same arena as they were placed in T1 trial. Choice phase (T2) rats were allowed to explore the open field for 3 minutes in presence of one familiar object (a3) and one novel object (b) (Amber color glass bottle, 12 cm high and 5 cm in diameter). Familiar objects presented similar textures, colors and sizes. During the T1 and T2 trial, explorations of each object (defined as sniffing, licking, chewing or having moving vibrissae whilst directing the nose towards the object at a distance of less than 1 cm) were recorded separately by stopwatch. Sitting on an object was not regarded as exploratory activity, however, it was rarely observed. T1 is the total time spent exploring the familiar objects (a1+a2). T2 is the total time spent exploring the familiar object and novel object (a3+b).
# The object recognition test was performed as described by Ennaceur, A., Delacour, J., 1988, A new one-trial test for neurobiological studies of memory in rats—Behavioural data, Behav. Brain Res., 31, 47-59.
smiles,measurement,setting,value
COc1ccc2[nH]cc(S(=O)(=O)c3ccc(Cl)c(NC4CCN(C)CC4)c3)c2c1.Cl,melting point,,240.3 to 243.2 °C
"COc1ccc(S(=O)(=O)c2cc(Br)ccc2OC)cc1NC1CCN(C)CC1.Cl [Example 3, N-[5-(5-Bromo-2-methoxybenzenesulfonyl)-2-methoxyphenyl]-N-(1-methylpiperidin-4-yl)amine hydrochloride salt]",Kb,[1],0.01 nM
same,AUC(0-t),[2]; Intravenous,1610 ± 544 ng·h/mL
same,half-life,[2]; Intravenous,94.2 ± 12.6 min
same,Cmax,[2]; Intravenous,1080 ± 569 ng/mL
same,Tmax,[2]; Intravenous,7.2 ± 5.4 min
same,bioavailability,[2],38 ± 1%
same,AUC(0-t),[2]; Oral,931 ± 186 ng·h/mL
same,half-life,[2]; Oral,81 ± 16.2 min
same,Cmax,[2]; Oral,341 ± 60 ng/mL
same,Tmax,[2]; Oral,33.6 ± 18.6 min
same,"Exploration time mean ± S.E.M, Familiar object",[3]; 1 mg/kg,4.53 ± 0.72 s
same,"Exploration time mean ± S.E.M, Novel object",[3]; 1 mg/kg,10.29 ± 1.54 s
same,Inference,[3]; 1 mg/kg,Active
"CN1CCC(Nc2cccc(S(=O)(=O)c3c[nH]c4cc(Cl)ccc34)c2)CC1 [Example 5, N-(1-Methylpiperidin-4-yl)-N-[3-(6-chloro-1H-indole-3-ylsulfonyl)phenyl]amine hydrochloride]",Kb,[1],3.38 nM
"CN1CCC(Nc2cccc(S(=O)(=O)c3c[nH]c4ccc(F)cc34)c2)CC1.Cl [Example 6, N-(1-Methylpiperidin-4-yl)-N-[3-(5-fluoro-1H-indole-3-ylsulfonyl)phenyl]amine hydrochloride]",Kb,[1],3.59 nM
same,melting point,,229.7 to 233.1 °C
"CN1CCC(Nc2cc(S(=O)(=O)c3c[nH]c4cc(Cl)ccc34)ccc2Cl)CC1.Cl [Example 8, N-(1-Methylpiperidin-4-yl)-N-[2-chloro-5-(6-chloro-1H-indole-3-ylsulfonyl)phenyl]amine hydrochloride]",Kb,[1],5.7 nM
same,AUC(0-t),[2]; Intravenous,6950 ± 3450 ng·h/mL
same,half-life,[2]; Intravenous,338 ± 57 min
same,Cmax,[2]; Intravenous,1340 ± 426 ng/mL
same,Tmax,[2]; Intravenous,4.8 min
same,bioavailability,[2],58 ± 12%
same,AUC(0-t),[2]; Oral,3810 ± 1340 ng·h/mL
same,half-life,[2]; Oral,544 ± 128 min
same,Cmax,[2]; Oral,327 ± 99 ng/mL
same,Tmax,[2]; Oral,180 min
same,melting point,,189.7 to 194.2 °C
"COc1ccc(S(=O)(=O)c2c[nH]c3ccccc23)cc1NC1CCN(C)CC1 [Example 11, N-(1-Methylpiperidin-4-yl)-N-[2-methoxy-5-(1H-Indole-3-ylsulfonyl)phenyl]amine]",Kb,[1],0.05 nM
same,"Exploration time mean ± S.E.M, Familiar object",[3]; 3 mg/kg,9.19 ± 1.44 s
same,"Exploration time mean ± S.E.M, Novel object",[3]; 3 mg/kg,14.24 ± 1.29 s
same,Inference,[3]; 3 mg/kg,Active
"COc1ccc2[nH]cc(S(=O)(=O)c3ccc(OC)c(NC4CCN(C)CC4)c3)c2c1 [Example 13, N-(1-Methylpiperidin-4-yl)-N-[2-methoxy-5-(5-methoxy-1H-Indole-3-ylsulfonyl)phenyl]amine]",Kb,[1],0.11 nM
"COc1ccc2[nH]cc(S(=O)(=O)c3ccc(OC)c(NC4CCNCC4)c3)c2c1 [Example 14, N-(Piperidin-4-yl)-N-[2-methoxy-5-(5-methoxy-1H-Indole-3-ylsulfonyl)phenyl]amine]",Kb,[1],0.16 nM
"CN1CCC(Nc2cc(S(=O)(=O)c3c[nH]c4cc(Cl)ccc34)ccc2Cl)CC1 [Example 15, N-(1-Methylpiperidin-4-yl)-N-[2-chloro-5-(6-chloro-1H-Indole-3-ylsulfonyl)phenyl] amine]",melting point,,186.1 to 189.9 °C
"COc1ccc(Br)cc1S(=O)(=O)c1ccc(C)c(NC2CCNCC2F)c1 (centres unmarked) [Example 18, N-[5-(5-Bromo-2-methoxybenzenesulfonyl)-2-methylphenyl]-N-(3-fluoropiperidin-4-yl) amine hydrochloride]",Kb,[1],6.1 nM
"COc1ccc(Br)cc1S(=O)(=O)c1ccc(C)c(NC2CCNCC2)c1 [Example 22, N-[5-(5-Bromo-2-methoxybenzenesulfonyl)-2-methylphenyl]-N-(piperidin-4-yl)amine hydrochloride]",Kb,[1],1.1 nM
"COc1ccc(Br)cc1S(=O)(=O)c1ccc(C)c(NC2CCN(C)CC2)c1 [Example 23, N-[5-(5-Bromo-2-methoxybenzenesulfonyl)-2-methylphenyl]-N-(1-methylpiperidin-4-yl)amine hydrochloride]",Kb,[1],2.1 nM
"COc1ccc(S(=O)(=O)c2cc(Br)ccc2OC)cc1NC1CCNCC1F.Cl (centres unmarked) [Example 28, N-[5-(5-Bromo-2-methoxybenzenesulfonyl)-2-methoxyphenyl]-N-(3-fluoropiperidin-4-yl)amine hydrochloride]",Kb,[1],0.1 nM
same,AUC(0-t),[2]; Intravenous,3470 ± 161 ng·h/mL
same,half-life,[2]; Intravenous,87.6 ± 7.8 min
same,Cmax,[2]; Intravenous,1920 ± 29 ng/mL
same,Tmax,[2]; Intravenous,4.8 min
same,bioavailability,[2],44 ± 18%
same,AUC(0-t),[2]; Oral,1520 ± 630 ng·h/mL
same,half-life,[2]; Oral,81.6 ± 4.2 min
same,Cmax,[2]; Oral,429 ± 181 ng/mL
same,Tmax,[2]; Oral,49.8 ± 17.4 min
same,"Exploration time mean ± S.E.M, Familiar object",[3]; 1 mg/kg,6.26 ± 0.30 s
same,"Exploration time mean ± S.E.M, Novel object",[3]; 1 mg/kg,11.46 ± 1.02 s
same,Inference,[3]; 1 mg/kg,Active
"COc1ccc(S(=O)(=O)c2cc(Br)ccc2OC)cc1NC1CCNCC1 [Example 29, N-[5-(5-Bromo-2-methoxybenzenesulfonyl)-2-methoxyphenyl]-N-(piperidin-4-yl)amine hydrochloride]",Kb,[1],0.1 nM
"COc1ccc(S(=O)(=O)c2ccc(OC)c(NC3CCN(C)CC3)c2)cc1Br [Example 30, N-[5-(3-Bromo-4-methoxybenzenesulfonyl)-2-methoxyphenyl]-N-(1-methylpiperidin-4-yl)amine tartarate]",Kb,[1],0.01 nM
"COc1ccc(S(=O)(=O)c2cc(F)ccc2OC)cc1NC1CCN(C)CC1 [Example 31, N-[5-(5-Fluoro-2-methoxybenzenesulfonyl)-2-methoxyphenyl]-N-(1-methylpiperidin-4-yl)amine tartarate]",Kb,[1],0.05 nM
"COc1ccc(S(=O)(=O)c2ccc(Cl)cc2)cc1NC1CCN(C)CC1 [Example 32, N-[5-(4-Chlorobenzenesulfonyl)-2-methoxyphenyl]-N-(1-methylpiperidin-4-yl)amine tartarate]",Kb,[1],0.06 nM
"COc1ccc(S(=O)(=O)c2ccc(OC)c(NC3CCN(C)CC3)c2)cc1Cl [Example 34, N-[5-(3-Chloro-4-methoxybenzenesulfonyl)-2-methoxyphenyl]-N-(1-methylpiperidin-4-yl)amine tartarate]",Kb,[1],0.1 nM
"Cc1ccc(S(=O)(=O)c2ccccc2)cc1NC1CCN(C)CC1 [Example 35, N-(5-Benzenesulfonyl-2-methylphenyl)-N-(1-methylpiperidin-4-yl)amine]","Exploration time mean ± S.E.M, Familiar object",[3]; 10 mg/kg,9.37 ± 1.66 s
same,"Exploration time mean ± S.E.M, Novel object",[3]; 10 mg/kg,15.81 ± 2.89 s
same,Inference,[3]; 10 mg/kg,Active
